Patent publication US20160022775A1, “TREATING LYSOSOMAL STORAGE DISEASE” (UNIVERSITY OF ROCHESTER, priority 2013, published 2016)

What was measured:
oligodendrocytes = conditions: cited from earlier work
[1] = tested on: oligodendrocyte progenitor cells; test: Migration of oligodendrocyte progenitor cells outward from a drop of cells; format: cell-based; conditions: OPCs exposed to PDGF; not a lethal level
Protocol: Exposure of oligodendrocyte progenitor cells to 1 μM psychosine is enough to greatly reduce cell migration.
Another aspect of psychosine function is to cause alterations in the cytoskeleton, which in dividing cells is manifested as a failure of migration. The migration of oligodendrocyte progenitor cells outward from a drop of cells was examined. Cells were stained with calcein to label living cells and propidium iodide (PI) to label dead cells. […] This effect was observed on multiple cell types.

OPCs = test: OPC division by clonal analysis in the presence of psychosine; format: cell-based, rat; conditions: OPCs grown in the presence of PDGF for 6 days
Protocol: As shown, by day 3 even 3.3 μM PC caused marked cell death. Division was analyzed by clonal analysis, and exposure to 1 μM PC caused a marked reduction in clonal size for cells grown in the presence of PDGF for 6 days.
(§1) Studies on division and survival of OPCs exposed to 0.1, 0.5, 1, 2, 5 or 10 μM PC, GPS or LS were conducted for 1, 2, 3 or 5 days. These experiments followed standard procedures (see Mayer et al. PNAS, 91: 7496-7500 (1994); Dietrich et al. J. Biol. 5: e22 (2006); and Han et al. J. Biol. 7 (4):12 (2008)) except that cell death was quantified using calcein AM and propidium iodide (PI) labeling of live cultures was used to identify live and dead cells, respectively. […] These dyes effectively overcome the problems with dyes for which cell numbers are inferred from metabolic activity (e.g., MTT, Alamar Blue), and provide quantitative information on cell numbers. Independent confirmation was obtained in all cases by visual examination of cultures. In these, and all other cases, all experiments were repeated at least three times, and all data points were collected in triplicate. All experiments were conducted in conditions of 5% O2, to more closely mimic physiological oxygen concentrations.

[2] = tested on: immortalized cell line characterized as an oligodendrocyte progenitor cell line; conditions: Zaka et al.; over 24 hours; cited from earlier work
primary OPCs = test: Survival of OPCs exposed to toxic lipids (calcein AM / propidium iodide, CELIGO); format: cell-based
Protocol: Whether toxic lipids have similar effects on the function of oligodendrocyte precursor cells (OPCs, the direct ancestors of myelin-forming oligodendrocytes), due to the common features of myelin breakdown and failure to repair such damage in LSDs, was determined. These experiments all used standard techniques (see Mayer et al. PNAS, 91: 7496-7500 (1994); Ibarrola et al. Dev. Biol. 180: 1-121 (1996); Smith et al. PNAS 97: 10032-10037 (2000); Power et al. Dev. Biol. 245: 362-375 (2002); Dietrich et al. J. Biol. 5: e22 (2006); Li et al. PLoS Biol. 5: e35 (2007)), as adapted to enable rapid automated analysis of microscopy images captured using the CELIGO® imaging system (Brooks Automation, Chelmsford, Mass.). This system enables collection of data using brightfield and three-color fluorescence and provides similar information to be obtained at the single cell level in adherent cell cultures as yielded by flow cytometry. This approach enables quantitatively analysis of 80 different experimental conditions (in triplicate) per hour.
as §1
The sensitivity of primary OPCs to PC was determined. The sensitivity of the cells to glucopsychosine (GPC) and lysosulfatide (LS) was also examined. […] Thus, OPCs are even more sensitive to PC than oligodendrocytes, which are sensitive at 10 μM psychosine. More critically, they are an order of magnitude more sensitive than indicated by studies described in Zaka et al. (Mol. Cell Neurosci. 30 (3): 398-407 (2005)) on immortalized cell lines.

[3] = tested on: lysosomal pH of cells exposed to psychosine; test: Lysosomal pH in cells exposed to psychosine; format: cell-based; conditions: cells exposed to psychosine versus normal cells
Source text: The effects of cytoskeletal collapse and changes in lysosomal pH were examined. […] The agents that protect both division and survival also restore lysosomal pH to a normal range. However, […] that rescue cell division examined for their effects on lysosomal pH also restore normal levels of pH. Thus, rescuing lysosomal pH is not sufficient to rescue cell survival. Further, agents chosen solely on the basis of rescue of lysosomal pH are not sufficient to also function as rescue agents in cell survival.

[4] = tested on: human fetal neuroepithelial stem cells (hNSCs); test: Sensitivity of human CNS precursor cells to toxic lipids; format: cell-based

Compound: CCCCCCCCCCCCC/C=C/[C@@H](O)[C@@H](N)CO[C@@H]1O[C@H](CO)[C@H](O)[C@H](O)[C@H]1O [psychosine]
- concentration at which oligodendrocytes are sensitive (oligodendrocytes): 10 µM
- concentration enough to greatly reduce cell migration [1]: 1 µM
- concentration causing marked reduction in clonal size (OPCs): 1 µM
- concentration at which immortalized OPC line is vulnerable / marked cell death [2]: 50 µM
- exposure level as low as which toxic for OPCs (primary OPCs): 5 µM
- concentration causing marked cell death (primary OPCs; purified OPCs, by day 3, calcein AM, CELIGO): 3.3 µM
- effect on pH of exposed cells [3]: becomes more alkaline
- vulnerability of hNSCs compared with rat OPCs [4]: at least as vulnerable
